From publication PMC7044277 (Nature Communications, 2020)
Several values for one entry are separate records, joined by “and”; a condition that tells them apart may be missing. Equal entries are not always repeated.

Key:
Format in all cases: cell-based
[1] = target: T1, 320 non-olfactory GPCRs (Homo sapiens, UniProt P41231); conditions: receptor P2RY2; replicate values, Fig_4g
T1 construct: expressed in transfected cells; host or cells: HTLA cells

[2] = target: T2, 320 non-olfactory GPCRs (Homo sapiens, UniProt P47901)
T2 construct: expressed in transfected cells; host or cells: HTLA cells

[3] = target: T3, 320 non-olfactory GPCRs (Homo sapiens, UniProt P55085)
T3 construct: expressed in transfected cells; host or cells: HTLA cells

[4] = target: T4, 320 non-olfactory GPCRs (Homo sapiens, UniProt Q9H244); conditions: receptor P2RY12; replicate values, Fig_4g
T4 construct: expressed in transfected cells; host or cells: HTLA cells
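For Fold of Basal in this document: compound tested at 1 µM final concentration.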
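For GPCRome agonism screen response in this document: fold over basal response of each receptor without drug.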

T3 sequence (P55085 26-397): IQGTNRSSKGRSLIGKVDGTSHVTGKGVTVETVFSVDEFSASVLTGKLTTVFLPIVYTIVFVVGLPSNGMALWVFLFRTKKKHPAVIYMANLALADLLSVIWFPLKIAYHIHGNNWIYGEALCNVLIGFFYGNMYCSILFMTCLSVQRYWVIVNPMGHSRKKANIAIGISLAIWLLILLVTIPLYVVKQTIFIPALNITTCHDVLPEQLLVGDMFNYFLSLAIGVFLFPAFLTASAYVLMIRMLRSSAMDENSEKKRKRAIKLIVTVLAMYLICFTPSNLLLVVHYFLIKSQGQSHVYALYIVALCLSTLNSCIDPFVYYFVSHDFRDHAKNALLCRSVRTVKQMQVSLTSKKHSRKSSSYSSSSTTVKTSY
T1 sequence (P41231 whole entry): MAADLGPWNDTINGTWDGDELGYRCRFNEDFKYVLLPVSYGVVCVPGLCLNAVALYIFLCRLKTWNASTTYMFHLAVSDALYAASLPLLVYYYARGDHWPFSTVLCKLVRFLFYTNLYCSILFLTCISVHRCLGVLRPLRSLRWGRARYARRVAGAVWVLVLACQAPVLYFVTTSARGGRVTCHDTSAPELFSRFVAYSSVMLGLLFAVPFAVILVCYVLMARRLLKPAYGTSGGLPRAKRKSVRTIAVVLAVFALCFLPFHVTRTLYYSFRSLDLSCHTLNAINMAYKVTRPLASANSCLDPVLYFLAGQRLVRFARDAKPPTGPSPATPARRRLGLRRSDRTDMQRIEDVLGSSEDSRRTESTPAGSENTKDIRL
T4 sequence (Q9H244 whole entry): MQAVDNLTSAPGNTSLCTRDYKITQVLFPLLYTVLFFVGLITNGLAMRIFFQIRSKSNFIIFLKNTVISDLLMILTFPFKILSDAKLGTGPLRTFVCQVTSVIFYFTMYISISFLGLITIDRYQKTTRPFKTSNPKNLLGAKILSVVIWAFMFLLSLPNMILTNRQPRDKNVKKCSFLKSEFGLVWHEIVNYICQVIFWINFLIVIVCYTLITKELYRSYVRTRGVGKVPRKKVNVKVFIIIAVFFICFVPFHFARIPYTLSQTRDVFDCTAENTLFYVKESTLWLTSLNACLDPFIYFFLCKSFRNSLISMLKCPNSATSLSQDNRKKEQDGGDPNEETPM
T2 sequence (P47901 whole entry): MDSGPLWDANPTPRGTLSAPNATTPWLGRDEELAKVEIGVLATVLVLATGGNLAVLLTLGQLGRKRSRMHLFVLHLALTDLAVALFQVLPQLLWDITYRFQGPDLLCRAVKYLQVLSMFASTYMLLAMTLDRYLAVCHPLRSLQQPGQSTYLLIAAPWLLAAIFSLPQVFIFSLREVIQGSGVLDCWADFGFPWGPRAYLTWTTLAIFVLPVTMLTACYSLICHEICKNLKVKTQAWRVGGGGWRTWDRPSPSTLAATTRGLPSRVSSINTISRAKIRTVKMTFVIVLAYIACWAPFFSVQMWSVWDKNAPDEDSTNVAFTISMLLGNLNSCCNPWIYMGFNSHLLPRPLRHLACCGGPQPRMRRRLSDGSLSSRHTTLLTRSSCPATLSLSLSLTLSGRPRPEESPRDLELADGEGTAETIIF

CCOc1cccc2cc(C(C)NCC3(O)CCCCC3)oc12 (stereo not shown) [O4LE6]
GPCRome agonism screen response [1]: 1.397 and 0.7849 and 2.272 and 0.7466
Fold of Basal [2]: 1.0215 and 1.01 and 1.094 and 0.8472
Fold of Basal [3]: 0.6754 and 1.05 and 1.156 and 0.8918
GPCRome agonism screen response [4]: 1.331 and 0.8524 and 1.417 and 1.455
